Test results taken from patent US20260109721A1, “IONIZABLE CATIONIC LIPIDS INCORPORATING SILICON: SYNTHESIS AND LNP FORMULATION” (priority 2023, published 2026).

System: HepG2 cell line
Experiment: In vitro toxicity study on HepG2 cell line (resazurin, viability and IC50)
Format: cell-based, human
Conditions: for IC50: Homo sapiens, lipid toxicity, HepG2, 48 h post-treatment, 6.25-800 μM, read-out: IC50 value, μM (on HepG2 cell)
Summary of the method: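 Resazurin read-out (ex 530/em 580 nm, 5 h at 37 °C) measured lipid toxicity 48 h after dosing HepG2 cells (1000/well) at 6.25–800 μM. Viability was normalised to ethanol vehicle, and IC50 was derived from concentration-response curves.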

[1] = HepG2 cells, 6.25 μM lipid, 48 h post-treatment, resazurin, relative to ethanol vehicle controls
[2] = HepG2 cells, 12.5 μM lipid, 48 h post-treatment, resazurin, relative to ethanol vehicle controls
[3] = HepG2 cells, 25 μM lipid, 48 h post-treatment, resazurin, relative to ethanol vehicle controls
[4] = HepG2 cells, 50 μM lipid, 48 h post-treatment, resazurin, relative to ethanol vehicle controls
[5] = HepG2 cells, 100 μM lipid, 48 h post-treatment, resazurin, relative to ethanol vehicle controls
[6] = HepG2 cells, 200 μM lipid, 48 h post-treatment, resazurin, relative to ethanol vehicle controls
[7] = HepG2 cells, 400 μM lipid, 48 h post-treatment, resazurin, relative to ethanol vehicle controls
[8] = HepG2 cells, 800 μM lipid, 48 h post-treatment, resazurin, relative to ethanol vehicle controls

Compound	Viability (%) at different lipid concentrations, mean [1]	Viability (%) at different lipid concentrations, mean [2]	Viability (%) at different lipid concentrations, mean [3]	Viability (%) at different lipid concentrations, mean [4]	Viability (%) at different lipid concentrations, mean [5]	Viability (%) at different lipid concentrations, mean [6]	Viability (%) at different lipid concentrations, mean [7]	Viability (%) at different lipid concentrations, mean [8]	IC50 (resazurin)	Viability (%) at different lipid concentrations, mean (human, 48 h, 6.25 μM)	Viability (%) at different lipid concentrations, mean (human, 48 h, 50 μM)
CCCCCCCC/C=C\CCCCCCCCOC(=O)C(C)(C)CC(OCCCCCCCC/C=C\CCCCCCCC)O[Si](C)(C)OCCCCCCN(C)CCCCO (stereo not drawn) [Example 91, (Z)-octadec-9-en-1-yl 18-hydroxy-2,2,6,6,14-pentamethyl-4-(((Z)-octadec-9-en-1-yl)oxy)-5,7-dioxa-14-aza-6-silaoctadecanoate]	100.2%	98.8%	108.4%	112.4%	103.1%	88.0%	61.2%	44.1%	625 µM	–	–
CCCCCCCC/C=C\CCCCCCCCOC(=O)C(C)(C)CC(OCCCCCCCC/C=C\CCCCCCCC)O[Si](C)(C)OCCCCCCN(C)CC(O)CO (stereo not drawn) [Example 92, (Z)-octadec-9-en-1-yl 1,2-dihydroxy-4,12,12,16,16-pentamethyl-14-(((Z)-octadec-9-en-1-yl)oxy)-11,13-dioxa-4-aza-12-silaheptadecan-17-oate]	105.5%	104.3%	110.6%	109.4%	98.9%	80.7%	63.8%	49.2%	691 µM	–	–
CCCCCCCC/C=C\CCCCCCCCOC(=O)C(C)(C)CC(OCCCCCCCC/C=C\CCCCCCCC)O[Si](C)(C)OCCCCCCN(C)CCO (stereo not drawn) [Example 93, (Z)-octadec-9-en-1-yl 1-hydroxy-3,11,11,15,15-pentamethyl-13-(((Z)-octadec-9-en-1-yl)oxy)-10,12-dioxa-3-aza-11-silahexadecan-16-oate]	102.3%	99.0%	105.2%	112.1%	111.6%	99.7%	83.4%	72.2%	> 800 µM	–	–
CCCCCCCC/C=C\CCCCCCCCOC(=O)C(C)(C)CCC(OCCCCCCCC/C=C\CCCCCCCC)O[Si](C)(C)OCCCCCCN(CCO)CCO (stereo not drawn) [Example 94, (Z)-octadec-9-en-1-yl 1-hydroxy-3-(2-hydroxyethyl)-11,11,16,16-tetramethyl-13-(((Z)-octadec-9-en-1-yl)oxy)-10,12-dioxa-3-aza-11-silaheptadecan-17-oate]	–	96.6%	97.9%	–	106.5%	107.9%	104.0%	103.1%	> 800 µM	101.5%	101.3%
